Assay results from ChEMBL document CHEMBL5543174, “A Nonbactericidal Anionic Antimicrobial Peptide Provides Prophylactic and Therapeutic Efficacies against Bacterial Infections in Mice by Immunomodulatory-Antithrombotic Duality” (J Med Chem, 2024).
Active and inactive are the calls of the source. The calls are words filed in the database; no cut-off is given here.

What was measured:
[1] = test system: Staphylococcus aureus; assay: Antibacterial activity against Staphylococcus aureus ATCC 25923 infected in C57BL/6 mouse assessed as increase in survival rate at 10 mg/kg,ip administrated 5 hrs after bacterial infection measured after 7 days; assay type: functional, organism-based; settings: time 7.0 day
[2] = test system: Peritoneal macrophage; assay: Immunomodulatory activity in mouse Peritoneal macrophage assessed as decrease in LTA-induced IL-6 production at 25 to 100 ug/ml incubated for 6 hrs by ELISA; assay type: functional, cell-based; settings: dose 25-100 µg/ml
[3] = test system: Mus musculus; assay: Induction of chemotaxis in C57BL/6 mouse assessed as upregulation of MCP-1 expression in peritoneal lavage at 10 mg/kg,ip administration measured at 5 to 24 hrs by ELISA; assay type: functional, organism-based; settings: time 5-24 hrs
[4] = test system: Peritoneal macrophage; assay: Immunoregulatory activity in mouse Peritoneal macrophage assessed as upregulation of p38 phosphorylation incubated for 1 hr by Western blotting analysis; assay type: functional, cell-based
[5] = test system: Escherichia coli; assay: Antibacterial activity against Escherichia coli ATCC 25922 infected in C57BL/6 mouse assessed as reduction in inflammatory injury in lung at 10 mg/kg,ip pre-administrated 5 hrs before bacterial infection measured after 24 hrs by hematoxylin and eosin staining based analysis; assay type: functional, organism-based; settings: time 29.0 hrs
[6] = test system: Peritoneal macrophage cell; assay: Induction of chemotaxis in mouse Peritoneal macrophage assessed as increase in macrophage migration at 100 ug/ml preincubated with PTX for 30 mins followed by compound addition measured after 8 hrs by crystal violet staining based indirect transwell assay; assay type: functional, cell-based; settings: dose 100.0 µg/ml
[7] = test system: Staphylococcus aureus; assay: Antibacterial activity against Staphylococcus aureus ATCC 25923 infected in C57BL/6 mouse assessed as reduction in TNF-alpha level in serum at 10 mg/kg,ip pre-administrated 5 hrs before bacterial infection measured after 24 hrs by ELISA; assay type: functional, organism-based; settings: time 29.0 hrs
[8] = test system: Escherichia coli; assay: Antimicrobial activity against Carbapenem-resistant Escherichia coli assessed as reduction in metabolic activity at < 200 ug/ml incubated for 1 to 4 hrs by CCK-8 assay; assay type: functional, organism-based; settings: dose < 200.0 µg/ml, time 1-4 hrs
[9] = test system: Escherichia coli; assay: Antibacterial activity against Carbapenem-resistant Escherichia coli infected in C57BL/6 mouse assessed as reduction in IL-1beta level in serum at 10 mg/kg,ip pre-administrated 5 hrs before bacterial infection measured after 24 hrs by ELISA; assay type: functional, organism-based; settings: time 29.0 hrs
[10] = test system: Peritoneal macrophage cell; assay: Induction of chemotaxis in mouse Peritoneal macrophage assessed as upregulation of CXCL1 production at 100 ug/ml preincubated with MTS510 followed by compound addition by ELISA; assay type: functional, cell-based; settings: dose 100.0 µg/ml
[11] = test system: Peritoneal macrophage cell; assay: Induction of chemotaxis in mouse Peritoneal macrophage assessed as upregulation of CXCL2 production at 100 ug/ml preincubated with WRW4 followed by compound addition by ELISA; assay type: functional, cell-based; settings: dose 100.0 µg/ml
[12] = test system: Mus musculus; assay: Anticoagulation activity in mouse infected with Carbapenem-resistant Escherichia coli assessed as increase in plasma TFPI expression at 10 mg/kg,ip administrated 5 hrs after bacterial infection measured after 24 hrs by ELISA; assay type: functional, organism-based; settings: time 19.0 hrs
[13] = test system: Staphylococcus epidermidis; assay: Antimicrobial activity against Staphylococcus epidermidis ATCC 12228 assessed as inhibition of microbial growth at <= 200 ug/ml incubated for 18 hrs by micro-broth dilution method; assay type: functional, organism-based; settings: dose <= 200.0 µg/ml
[14] = test system: Staphylococcus aureus; assay: Antibacterial activity against Methicillin-resistant Staphylococcus aureus infected in C57BL/6 mouse assessed as reduction in TNF-alpha level in peritoneal fluid at 10 mg/kg,ip administrated 5 hrs after bacterial infection measured after 24 hrs by ELISA; assay type: functional, organism-based; settings: time 19.0 hrs
[15] = test system: Escherichia coli; assay: Antibacterial activity against Carbapenem-resistant Escherichia coli infected in C57BL/6 mouse assessed as reduction in IL-1beta level in serum at 10 mg/kg,ip administrated 5 hrs after bacterial infection measured after 24 hrs by ELISA; assay type: functional, organism-based; settings: time 19.0 hrs
[16] = test system: Mus musculus; assay: Antithrombotic activity in BALB/c mouse dorsal skin defect model assessed as increase in skin bleeding time at 10 mg/kg,SC administration; assay type: functional, organism-based
[17] = test system: Lymphocyte; assay: Immunomodulatory activity in mouse spleen derived lymphocyte assessed as increase in lymphocyte proliferation at < 200 ug/ml incubated for 24 hrs by CCK-8 assay; assay type: functional, cell-based; settings: dose < 200.0 µg/ml
[18] = test system: Peritoneal macrophage cell; assay: Induction of ROS production in mouse Peritoneal macrophage incubated for 6 hrs by DCFA-DA staining based flow cytometry; assay type: functional, cell-based
[19] = test system: Neutrophil; assay: Induction of chemotaxis in mouse bone marrow derived neutrophil assessed as increase in neutrophil migration at 25 to 100 ug/ml incubated for 8 hrs by crystal violet staining based direct transwell assay; assay type: functional, cell-based; settings: dose 25-100 µg/ml
[20] = test system: Mus musculus; assay: Immunomodulatory activity in clodronate liposome immunosuppressed C57BL/6 mouse with monocyte depletion model assessed as increase in number of monocyte in peritoneal lavage at 10 mg/kg,ip administration measured after 5 hrs by flow cytometry; assay type: functional, organism-based
[21] = test system: Peritoneal macrophage cell; assay: Induction of chemotaxis in mouse Peritoneal macrophage assessed as increase in macrophage migration at 100 ug/ml preincubated with KN62 for 30 mins followed by compound addition measured after 8 hrs by crystal violet staining based indirect transwell assay; assay type: functional, cell-based; settings: dose 100.0 µg/ml
[22] = test system: Peritoneal macrophage; assay: Immunomodulatory activity in mouse Peritoneal macrophage assessed as decrease in LPS-induced IL-6 production at 25 to 100 ug/ml incubated for 6 hrs by ELISA; assay type: functional, cell-based; settings: dose 25-100 µg/ml
[23] = test system: Staphylococcus aureus; assay: Antibacterial activity against Methicillin-resistant Staphylococcus aureus infected in C57BL/6 mouse assessed as increase in survival rate at 10 mg/kg,ip administrated 5 hrs after bacterial infection measured after 7 days; assay type: functional, organism-based; settings: time 7.0 day
[24] = test system: Peritoneal macrophage; assay: Immunoregulatory activity in mouse Peritoneal macrophage assessed as upregulation of p65 phosphorylation incubated for 1 hr by Western blotting analysis; assay type: functional, cell-based
[25] = test system: Escherichia coli; assay: Antibacterial activity against Escherichia coli ATCC 25922 infected in C57BL/6 mouse assessed as reduction in IL-1beta level in serum at 10 mg/kg,ip administrated 5 hrs after bacterial infection measured after 24 hrs by ELISA; assay type: functional, organism-based; settings: time 19.0 hrs
[26] = test system: Staphylococcus aureus; assay: Antibacterial activity against Methicillin-resistant Staphylococcus aureus infected in C57BL/6 mouse assessed as reduction in bacterial load at 10 mg/kg,ip administrated 5 hrs after bacterial infection; assay type: functional, organism-based
[27] = test system: Staphylococcus aureus; assay: Antibacterial activity against Methicillin-resistant Staphylococcus aureus infected in C57BL/6 mouse with clodronate liposome-induced monocyte depletion model assessed as reduction of bacterial burden in peritoneal cavity at 10 mg/kg,ip pre-administrated 5 hrs before bacterial infection measured after 24 hrs; assay type: functional, organism-based; settings: time 29.0 hrs
[28] = test system: Escherichia coli; assay: Antimicrobial activity against Carbapenem-resistant Escherichia coli assessed as reduction in microbial colony forming unit at 200 ug/ml incubated for 1 to 4 hrs by time-kill kinetics based analysis; assay type: functional, organism-based; settings: dose 200.0 µg/ml, time 1-4 hrs
[29] = test system: Escherichia coli; assay: Antibacterial activity against Carbapenem-resistant Escherichia coli infected in C57BL/6 mouse with clodronate liposome-induced monocyte depletion model assessed as decrease in bacterial burden in peritoneal cavity at 10 mg/kg,ip administrated 5 hrs after bacterial infection measured after 24 hrs; assay type: functional, organism-based; settings: time 19.0 hrs
[30] = test system: Escherichia coli; assay: Antibacterial activity against Carbapenem-resistant Escherichia coli infected in C57BL/6 mouse assessed as reduction in IL-1beta level in peritoneal fluid at 10 mg/kg,ip pre-administrated 5 hrs before bacterial infection measured after 24 hrs by ELISA; assay type: functional, organism-based; settings: time 29.0 hrs
[31] = test system: Plasma; assay: Anticoagulation activity in human platelet poor plasma assessed as elongation of prothrombin time at 100 ug/ml measured after 5 mins; assay type: functional, cell-free; settings: dose 100.0 µg/ml
[32] = test system: Staphylococcus aureus; assay: Antimicrobial activity against Methicillin-resistant Staphylococcus aureus assessed as reduction in metabolic activity at < 200 ug/ml incubated for 1 to 4 hrs by CCK-8 assay; assay type: functional, organism-based; settings: dose < 200.0 µg/ml, time 1-4 hrs

For `CC[C@H](C)[C@H](NC(=O)[C@@H]1CSSC[C@H](NC(=O)[C@H](CCC(=O)O)NC(=O)[C@@H](NC(=O)[C@H](CCCCN)NC(=O)[C@H](Cc2c[nH]cn2)NC(=O)[C@@H](NC(=O)[C@H](CCCCN)NC(=O)[C@H](CCC(=O)O)NC(=O)[C@H](C)NC(=O)[C@H](CCC(=O)O)NC(=O)[C@H](CCC(=O)O)NC(=O)[C@H](CCC(=O)O)NC(=O)[C@H](C)N)[C@@H](C)O)[C@@H](C)O)C(=O)N[C@@H](CC(C)C)C(=O)N[C@@H](CCC(=O)O)C(=O)N1)C(=O)N[C@@H](Cc1ccccc1)C(=O)N[C@H](C(=O)N[C@@H](CC(C)C)C(=O)N[C@@H](CC(C)C)C(=O)N1CCC[C@H]1C(=O)N1CCC[C@@H]1C(=O)N[C@H](C)C(=O)O)[C@@H](C)O`, the Activity [1] was “Active”, the Activity [2] was “inactive” and the Activity [3] was “inactive”. For the same compound, the Activity [4] was “Dose-Dependent Effect”, the Activity [5] was “Active” and the Activity [6] was “inactive”. For the same compound, the Activity [7] was “Active”, the Activity [8] was “inactive” and the Activity [9] was “Active”. For the same compound, the Activity [10] was “Active”, the Activity [11] was “Active” and the Activity [12] was “Active”. For the same compound, the Activity [13] was “inactive”, the Activity [14] was “Active” and the Activity [15] was “Active”. For the same compound, the Activity [16] was “inactive”, the Activity [17] was “inactive” and the Activity [18] was “Dose-Dependent Effect”. The Activity [19] was “inactive”, the Activity [20] was “Active” and the Activity [21] was “Active”. For the same compound, the Activity [22] was “inactive”, the Activity [23] was “Active” and the Activity [24] was “Dose-Dependent Effect”. For the same compound, the Activity [25] was “Active”, the Activity [26] was “Active” and the Activity [27] was “inactive”. The Activity [28] was “inactive”, the Activity [29] was “inactive” and the Activity [30] was “Active”. The Activity [31] was “inactive” and the Activity [32] was “inactive”.
